From EPA's ToxValDB 9.5
Several values for one entry are separate records, joined by “and”; a condition that tells them apart may be missing. Equal values may be shown once.

What was measured:
[1] = test system: Rattus norvegicus; conditions: acute
[2] = test system: Oryctolagus sp.; assay: LD0; higher = less toxic; conditions: acute; dermal; New Zealand
[3] = test system: Mus musculus; conditions: acute; inhalation
[4] = test system: Rattus norvegicus; assay: LD0; higher = less toxic; conditions: acute; oral; gavage
[5] = test system: Gallus sp.; conditions: repeat dose other; oral
[6] = test system: Canidae; conditions: acute; duration: 10 minutes; inhalation; unknown; Dog Other; Whole Body: Seizures
[7] = test system: Rattus norvegicus; conditions: inhalation
[8] = test system: Rattus norvegicus; conditions: M/F
[9] = test system: Rattus norvegicus; conditions: subchronic; duration: 13 weeks; inhalation; M/F; respiratory
[10] = test system: Homo sapiens; conditions: clinical; duration: 60 minutes; inhalation; M/F; respiratory
[11] = test system: Rattus norvegicus; conditions: subchronic, oral, gavage, Fischer 344, Deaths + Body Weight Changes: decrease + Hematology: Hct increase, RBC increase, WBC increase, Hgb increase, Ret increase, Nucleated …
[12] = test system: Rattus norvegicus; assay: FEL; higher = less toxic; conditions: chronic; oral; gavage; M/F; reduced survival
[13] = test system: Peromyscus polionotus; conditions: oral
[14] = test system: Phasianus colchicus; conditions: oral
[15] = test system: Neovison sp.; conditions: repeat dose other; oral; Mink
[16] = test system: Monkey; conditions: chronic; oral; F; decreased antibody (IgG and IgM) response to sheep erythrocytes + Ocular exudate, inflamed and prominent Meibomian glands, distorted growth …
[17] = test system: Monkey; conditions: chronic; duration: 5 years; oral; capsule; Immune system: Toxicity
[18] = reproduction developmental, duration: 9 days, F, Crl:CD(SD), generation: P0, P0: Skin: Stained Fur + P0: Whole Body: Body Weight Change + P0: Whole Body: Convulsions + P0: Whole Body: Feed Consumption, Absolute
[19] = reproduction developmental, duration: 9 days, M/F, Crl:CD(SD), generation: F1, F1: Whole Body: Pup Weight Relative to Litter
[20] = reproduction developmental, duration: 107 days, M, Crj:CD, generation: P0, P0: Whole Body: Clonic Seizures + P0: Whole Body: Mortality
[21] = reproduction developmental, duration: 121 days, F, Crl:CD(SD), generation: P0, P0: Liver: Liver Weight, Absolute + P0: Liver: Liver Weight, Relative + P0: Pituitary: Pituitary Gland Weight, Absolute + P0: Pituitary: …
[22] = subchronic, duration: 90 days, F, Crl:CD(SD) BR, Blood: Albumin (A) + Renal: Urine Osmolality + Renal: Urine Volume (UVOL) + Whole Body: Motor Activity
[23] = subchronic, duration: 90 days, F, Crl:CD(SD) BR, Central Nervous System: Abnormal Behavior
[24] = subchronic, duration: 90 days, M, Crl:CD(SD) BR, Blood: Albumin (A) + Whole Body: Motor Activity
[25] = subchronic, duration: 90 days, M, Crl:CD(SD) BR, Central Nervous System: Abnormal Behavior

With CC12C=CC(C1)C1C(=O)OC(=O)C12 (stereo not drawn) [1,2,3,6-Tetrahydromethyl-3,6-methanophthalic anhydride] as the compound, how does the LD50 ([1]; dermal) read?
The LD50 was 4920 mg/kg and ≥ 3670 mg/kg and ≤ 6590 mg/kg.

And the LD50 ([1]; oral)?
Its LD50 is 914 mg/kg.

What about the LD50 ([1]; oral, gavage, Sprague-Dawley) of the same compound?
The LD50 was 958 mg/kg and ≥ 856 mg/kg and ≤ 1080 mg/kg.

What about the LD0 [2] of the same compound?
Its LD0 is > 2000 mg/kg.

With FC(F)(Cl)C(F)(F)Cl [1,2-Dichloro-1,1,2,2-tetrafluoroethane] as the compound, how does the LC50 [3] read?
The LC50 was 4.89e+06 mg/m3.

What about the LD0 [4] of the same compound?
Its LD0 is > 2250 mg/kg.

How did the LOAEL [5] turn out when Clc1cc2oc3cc(Cl)c(Cl)cc3c2cc1Cl [2,3,7,8-Tetrachlorodibenzofuran] was run?
Its LOAEL is 1e-05 mg/kg-day.

And the NOAEL [5]?
The NOAEL was 1e-06 mg/kg-day.

What does the source list for FC(C(F)C(F)(F)C(F)(F)F)C(F)(F)F (stereo not drawn) [2H,3H-Decafluoropentane]?
LOAEL [6]: 103000 mg/m3; NOAEL [6]: 51500 mg/m3; NOAEL ([7]; reproduction developmental, duration: 9 days, F, Crl:CD(SD), generation: P0, P0: Ovary: Corpora Lutea + P0: Uterus: Implantation + P0: Uterus: Uterine Weight, Gravid): 35800 mg/m3; LOAEL [7, 18]: 20000 mg/m3; NOAEL [7, 18]: 5170 mg/m3; NOAEL ([7]; reproduction developmental, duration: 9 days, M/F, Crl:CD(SD), generation: F1, F1: Multi-Organ: Soft Tissue Examinations + F1: Skeleton: Skeletal Examinations + F1: Uterus: Resorptions, Early + F1: Uterus: Resorptions, …): 35800 mg/m3; LOAEL [7, 19]: 35800 mg/m3; NOAEL [7, 19]: 20000 mg/m3; NOAEL ([7]; reproduction developmental, duration: 107 days, M, Crj:CD, generation: P0, P0: Liver: Liver Weight, Absolute + P0: Liver: Liver Weight, Relative + P0: Pituitary: Pituitary Gland Weight, Absolute + P0: Pituitary: …): 36100 mg/m3; LOAEL [7, 20]: 36100 mg/m3; NOAEL [7, 20]: 20600 mg/m3; LOAEL [7, 21]: 36100 mg/m3; NOAEL [7, 21]: 20600 mg/m3; NOAEL ([7]; reproduction developmental, duration: 121 days, F, Crl:CD(SD), generation: P0, P0: Uterus: Implantation + P0: Whole Body: Fertility Index + P0: Whole Body: Maternal Body Weight + P0: Whole Body: Maternal Body Weight …): 36100 mg/m3; NOAEL ([7]; reproduction developmental, duration: 121 days, M/F, Crl:CD(SD), generation: F1, F1: Whole Body: Necropsy Appeared Normal + F1: Whole Body: Pup Weight Relative to Litter + F1: Whole Body: Survival + F1: Whole Body: …): 36100 mg/m3; NOAEL ([7]; subchronic, duration: 90 days, F, Crl:CD(SD) BR, Adrenal: Adrenal Gland Histopathology + Adrenal: Adrenal Gland Weight, Absolute + Adrenal: Adrenal Gland Weight, Relative + Brain: Brain …): 36100 mg/m3; LOAEL [7, 22]: 36100 mg/m3; NOAEL [7, 22]: 20600 mg/m3; LOAEL [7, 23]: 20600 mg/m3; NOAEL [7, 23]: 5150 mg/m3; NOAEL ([7]; subchronic, duration: 90 days, M, Crl:CD(SD) BR, Adrenal: Adrenal Gland Histopathology + Adrenal: Adrenal Gland Weight, Absolute + Adrenal: Adrenal Gland Weight, Relative + Brain: Brain …): 36100 mg/m3; LOAEL [7, 24]: 36100 mg/m3; NOAEL [7, 24]: 20600 mg/m3; LOAEL [7, 25]: 20600 mg/m3; NOAEL [7, 25]: 5150 mg/m3

C=CC=O [Acrolein] was tested. Which NOAEL ([8]; chronic, oral, gavage, reduced survival) did it give?
The NOAEL was 0.05 mg/kg-day.

And the LOAEL ([8]; subchronic, inhalation, nasal lesions)?
Its LOAEL is 0.9 mg/m3.

What about the LOAEL [9] of the same compound?
The LOAEL was 0.917 mg/m3.

And the LOAEL [10]?
Its LOAEL is 0.688 mg/m3.

What about the NOEL ([11]; F) of the same compound?
Its NOEL is < 0.75 mg/kg-day.

And the NOEL ([11]; M)?
Its NOEL is 1.25 mg/kg-day.

What about the FEL [12] of the same compound?
The FEL was 0.5 mg/kg-day.

Clc1cccc(-c2ccc(Cl)c(Cl)c2Cl)c1Cl [Aroclor 1254] was tested. Which LOAEL [13] did it give?
The LOAEL was 0.68 mg/kg-day.

What about the NOAEL [13] of the same compound?
The NOAEL was 0.068 mg/kg-day.

What about the LOAEL [14] of the same compound?
The LOAEL was 1.8 mg/kg-day.

What about the NOAEL [14] of the same compound?
Its NOAEL is 0.18 mg/kg-day.

And the LOAEL [15]?
Its LOAEL is 0.69 mg/kg-day.

And the NOAEL [15]?
Its NOAEL is 0.14 mg/kg-day.

And the LOAEL [16]?
Its LOAEL is 0.005 mg/kg-day.

What about the LOAEL [17] of the same compound?
The LOAEL was 0.005 mg/kg-day.
